Test [1] concerns the target T1, papain (Carica papaya, UniProt P00784).
T1 sequence (P00784 134-345): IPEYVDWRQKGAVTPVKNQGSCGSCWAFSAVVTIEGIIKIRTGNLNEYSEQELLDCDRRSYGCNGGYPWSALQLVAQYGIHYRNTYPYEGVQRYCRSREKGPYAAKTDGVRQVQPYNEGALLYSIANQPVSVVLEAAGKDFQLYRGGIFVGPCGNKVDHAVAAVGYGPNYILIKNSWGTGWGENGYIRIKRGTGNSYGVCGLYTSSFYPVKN
Description: fluorimetric papain assay with ZFR-MCA; titration of papain by the irreversible inhibitor (positive control). It is filed as biochemical. To be noted: read-out: % inhibition at 1 μM (25 nM in the well).

Test [2] concerns the target T1, papain. Description: fluorimetric papain assay with ZFR-MCA substrate. It counts as biochemical.

Where two headings read alike, the source gives them in different places.

Usually inhibition stands for the change of the read-out against control, counted positive when it falls. The term IC50 denotes the midpoint of a concentration-inhibition curve.

`CC(C)C[C@H](NC(=O)C1OC1C(=O)O)C(=O)NCCCCNC(=N)N` (stereo partly drawn) [E-64, 1‐[L‐N‐(trans‐epoxysuccinyl)leucyl] amino‐4‐guanidinobutane]: the inhibition at 1 µM on papain [1] amounted to 90%.

For the compound `CC(=C\C(=O)O)/C=C(\C)C[C@H](C)CCCC[C@@H](O)C(CO)C(=O)O` (stereo partly shown) [compound 2, fusaridioic acid A], the IC50 on papain [2] (read-out: IC50) is 28.6 µM. As for `CC(=C\C(=O)O)/C=C(\C)C[C@H](C)CCCC[C@H]1OC(=O)[C@@H]1CO` [compound 1, hymeglusin], the half-maximal inhibitory concentration (IC50) on papain [2] (read-out: IC50) was found to be 9.38 µM. The compound `COC(=O)[C@]1(Cc2ccc(O)c(CC=C(C)C)c2)OC(=O)C(O)=C1c1ccc(O)cc1` [compound 3, butyrolactone I] registered an IC50 against papain [2] of 6.24 µM.
